Consider 19 compounds from PubChem BioAssay (NCI).

Test systems include PC-3 prostate; HOP-92 NSCLC; SF-539 CNS; HS 578T breast.
Holding throughout (assay): NCI tumour cell line growth inhibition, 48 h

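Grown in 96-well plates, cells were treated for 48 hours with each compound at five concentrations. Insufficient inhibition: endpoint recorded as highest concentration tested. Abbreviation: GI50, concentration required for 50% inhibition of growth. At the TGI there is no net growth.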

As to `COc1ccc2c(c1)sc1nc(-c3ccccc3)c(-c3ccc(O)c(OC)c3)n12`, the GI50 in the experiment with PC-3 prostate is 26.3 µM; with HOP-92 NSCLC it was 28 µM; in the experiment with SF-539 CNS, 6.63 µM; in the experiment on HS 578T breast it was over 100 µM. For the same compound, the TGI with PC-3 prostate, in the experiment with HOP-92 NSCLC, in the experiment with SF-539 CNS and with HS 578T breast was over 100 µM each time.
On to `COc1ccc(-c2cc(-c3cn[nH]c3-c3ccccn3)ccn2)cc1`, for which the GI50 in the experiment on PC-3 prostate, with HOP-92 NSCLC, in the experiment on SF-539 CNS and in the experiment on HS 578T breast was over 25 µM each time. For the same compound, the TGI in the experiment with PC-3 prostate, in the experiment with HOP-92 NSCLC, with SF-539 CNS and with HS 578T breast was over 25 µM in each case.
For the compound `Nc1nc(N)c2c(ccc3nccc32)[nH]1`, the GI50 is 1.63 µM with PC-3 prostate, 4.18 µM in the experiment with HOP-92 NSCLC, 3.26 µM in the experiment with SF-539 CNS and over 21.8 µM in the experiment with HS 578T breast. The TGI was over 64.2 µM in the experiment on PC-3 prostate, 30.6 µM in the experiment with HOP-92 NSCLC, over 86.1 µM in the experiment on SF-539 CNS and over 64.7 µM in the experiment on HS 578T breast.
As for `Nc1c(C(=O)c2cccc(C#CCN3CCOCC3)c2)cnn1-c1ccc(F)cc1`, the GI50 is 15.4 µM with PC-3 prostate, over 13 µM in the experiment on HOP-92 NSCLC, over 25 µM in the experiment on SF-539 CNS and over 25 µM in the experiment on HS 578T breast. The TGI in the experiment on PC-3 prostate, in the experiment on HOP-92 NSCLC, in the experiment with SF-539 CNS and in the experiment with HS 578T breast was over 25 µM in each case.
As for `CO/N=C(/COc1c(-c2ccccc2)oc2ccccc2c1=O)c1ccc(OC)cc1`, the GI50 with PC-3 prostate, with SF-539 CNS and in the experiment with HS 578T breast was over 100 µM in each case. The TGI in the experiment with PC-3 prostate, in the experiment with SF-539 CNS and with HS 578T breast was over 100 µM throughout.
As for `CCCCCCCCCCCC[n+]1ccccc1`, the GI50 in the experiment on PC-3 prostate is 0.374 µM; in the experiment with HOP-92 NSCLC, 0.958 µM; with SF-539 CNS, 1.47 µM; in the experiment with HS 578T breast, 1.87 µM. Besides, the TGI worked out at 2.76 µM with PC-3 prostate, 3.1 µM in the experiment with HOP-92 NSCLC, 4.9 µM in the experiment with SF-539 CNS and 5.87 µM with HS 578T breast.
With `Cc1ncc(C(=O)Nc2ccc(CN3CCN(C)CC3)c(C(F)(F)F)c2)cc1C#Cc1cnc(N)c2ncccc12`, the GI50 in the experiment with PC-3 prostate is 1.22 µM; in the experiment on HOP-92 NSCLC, 0.129 µM; with SF-539 CNS it was 1.12 µM; in the experiment with HS 578T breast, 0.23 µM. Further, the TGI came to 2.8 µM in the experiment with PC-3 prostate, 1.66 µM with HOP-92 NSCLC, 2.59 µM in the experiment on SF-539 CNS and 4.69 µM in the experiment with HS 578T breast.
For `Cc1ccc2c(Nc3cccc(Cl)c3F)ncc(NC(=O)c3csc4c(N)ncnc34)c2c1`, the GI50 in the experiment on PC-3 prostate is over 100 µM; in the experiment with HOP-92 NSCLC, 0.136 µM; with SF-539 CNS, over 100 µM; in the experiment with HS 578T breast, over 100 µM. Further, the TGI with PC-3 prostate is over 100 µM; in the experiment on HOP-92 NSCLC it was 1.72 µM; in the experiment on SF-539 CNS it was over 100 µM; in the experiment on HS 578T breast it was over 100 µM.
For the compound `Cc1cccc(NC(=O)CCl)c1`, the TGI in the experiment with PC-3 prostate, in the experiment with SF-539 CNS and in the experiment on HS 578T breast was over 10 µM each time.
As to `CN1CCN(Cc2ccc(NC(=O)c3nc4ccc5[nH]ncc5c4c4c3CCC4)cc2C(F)(F)F)CC1`, the GI50 with PC-3 prostate was 0.926 µM; with HOP-92 NSCLC it was 3.53 µM; in the experiment with SF-539 CNS it was 0.879 µM; in the experiment with HS 578T breast, 0.833 µM. In addition, the TGI with PC-3 prostate worked out at 2.12 µM; in the experiment on HOP-92 NSCLC it was 10.6 µM; with SF-539 CNS, 1.58 µM; in the experiment with HS 578T breast, 1.65 µM.
`O=Cc1ccc(Oc2c3ccccc3nc3occc23)cc1`: the GI50 in the experiment on PC-3 prostate was 19.5 µM; in the experiment on SF-539 CNS it was 18.2 µM; in the experiment on HS 578T breast it was 13.4 µM. Further, the figures for the TGI in the experiment with PC-3 prostate, in the experiment on SF-539 CNS and with HS 578T breast were 58.6 µM, 37.5 µM and 51.6 µM, respectively.
Regarding `CC[C@H](C)[C@H](NC(=O)Nc1ccccc1)C(=O)N(C)[C@H](C[C@@H](OC(C)=O)c1nc(C(=O)N[C@@H](Cc2ccccc2)C[C@H](C)C(=O)OC)cs1)C(C)C`, the GI50 is 3.47 µM with PC-3 prostate, 1.34 µM in the experiment on HOP-92 NSCLC, 2.37 µM in the experiment on SF-539 CNS and 2.47 µM in the experiment with HS 578T breast. For the same compound, the TGI was over 100 µM in the experiment on PC-3 prostate, 62.9 µM with HOP-92 NSCLC, 6.85 µM in the experiment on SF-539 CNS and 8.73 µM with HS 578T breast.
As to `CC1=CC2=C(C(N)=O)C(=O)OC2(C)C(c2ccccc2)C1` (stereo not given), the TGI with PC-3 prostate, with HOP-92 NSCLC, with SF-539 CNS and in the experiment on HS 578T breast was over 100 µM throughout.
In the case of `COc1cc2nc(N3CCCC3)nc(Nc3ccccc3)c2cc1OC`, the GI50 in the experiment on PC-3 prostate is 1.71 µM; in the experiment with HOP-92 NSCLC, 1.39 µM; with SF-539 CNS, 0.56 µM; with HS 578T breast, 1.97 µM. Moreover, the TGI in the experiment on PC-3 prostate was 3.45 µM; in the experiment with HOP-92 NSCLC, 2.99 µM; in the experiment on SF-539 CNS it was 1.84 µM; in the experiment on HS 578T breast it was 4.45 µM.
For the compound `Cc1ccc(N=Nc2c(N)nn(-c3ccccc3)c2N)cc1`, the GI50 in the experiment on PC-3 prostate is 1.53 µM; with HOP-92 NSCLC, 3.44 µM; with SF-539 CNS, 1.78 µM; in the experiment with HS 578T breast, 1.94 µM. The TGI was 6.17 µM in the experiment with PC-3 prostate, 9.05 µM in the experiment on HOP-92 NSCLC, over 22.8 µM with SF-539 CNS and over 31.4 µM in the experiment with HS 578T breast.
With `C=CC(=O)N1CCC([C@@H]2CCNc3c(C(N)=O)c(-c4ccc(Oc5ccccc5)cc4)nn32)CC1`, the GI50 in the experiment on PC-3 prostate is 20.5 µM; in the experiment on HOP-92 NSCLC it was 13.6 µM; in the experiment with SF-539 CNS, 16.8 µM; in the experiment with HS 578T breast it was 14.7 µM. For the same compound, the TGI in the experiment with PC-3 prostate amounted to 69.3 µM; with HOP-92 NSCLC, 43.7 µM; in the experiment on SF-539 CNS, 56.4 µM; in the experiment with HS 578T breast, 46.8 µM.
For the compound `O=C1c2cc3c(cc2[C@@H]2[C@H]1c1ccc([N+](=O)[O-])cc1C(=O)N2CCCCl)OCO3`, the GI50 in the experiment with PC-3 prostate is under 0.01 µM; with HOP-92 NSCLC, under 0.03 µM; in the experiment with SF-539 CNS, under 0.01 µM; in the experiment on HS 578T breast it was 0.174 µM. Moreover, the results for the TGI with PC-3 prostate, in the experiment with HOP-92 NSCLC and in the experiment with HS 578T breast were over 44.5 µM, over 100 µM and 61.5 µM, respectively.
As to `O=C(O)CCCSc1nc2ccccc2s1`, the TGI with PC-3 prostate, in the experiment on HOP-92 NSCLC, with SF-539 CNS and in the experiment on HS 578T breast was over 100 µM each time.
Consider `O=C(NC(=S)NNC(=S)NNc1ccccc1)c1ccccc1`, for which, in the experiment with SF-539 CNS, the GI50 was 3.94 µM and the TGI turned out to be 44.1 µM. Moreover, in the experiment on HS 578T breast, the GI50 was 1.55 µM and the TGI is over 100 µM.
